The record followed here is US5622948A, “Pyrrole pyridazine and pyridazinone anti-inflammatory agents” (Syntex (U.S.A.) Inc., priority 1994, dated 1997).

The subject of assay [1] is PGE2 levels in the air-pouch exudate. Nature of the assay: PGE2 in exudate of carrageenan-induced inflammation (air-pouch model) in rats. Particulars: Rattus norvegicus; 0.1-30 mg/kg, relative to vehicle; read-out: IC50, inhibition of PGE2 levels in the exudate. The assay is classed as in vivo, rat.
A further assay addresses T1, COX II (Homo sapiens, UniProt P35354).
T1 sequence (P35354 18-604): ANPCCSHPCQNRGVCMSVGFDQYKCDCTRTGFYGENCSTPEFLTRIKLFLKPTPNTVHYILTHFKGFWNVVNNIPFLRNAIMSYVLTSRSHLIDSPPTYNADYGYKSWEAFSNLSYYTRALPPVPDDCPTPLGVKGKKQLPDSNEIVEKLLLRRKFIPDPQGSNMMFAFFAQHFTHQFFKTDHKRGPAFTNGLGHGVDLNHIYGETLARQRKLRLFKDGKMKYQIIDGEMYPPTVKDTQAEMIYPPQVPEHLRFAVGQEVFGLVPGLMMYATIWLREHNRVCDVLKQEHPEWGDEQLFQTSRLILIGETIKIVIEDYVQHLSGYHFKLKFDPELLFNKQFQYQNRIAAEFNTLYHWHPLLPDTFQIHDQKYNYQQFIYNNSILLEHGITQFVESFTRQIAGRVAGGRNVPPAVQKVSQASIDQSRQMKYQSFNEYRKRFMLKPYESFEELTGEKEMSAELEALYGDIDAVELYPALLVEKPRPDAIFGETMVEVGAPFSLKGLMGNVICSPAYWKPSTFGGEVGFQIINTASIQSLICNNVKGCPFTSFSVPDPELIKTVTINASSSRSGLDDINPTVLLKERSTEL
Nature of the assay: radiometric assay, COX II inhibition (human recombinant, baculovirus expressed, partially purified). In kind it is biochemical. The arrangement: A 1.8 Kb DNA fragment containing the coding region of human COX II was generated by PCR; made in house; host or cells: Sf9 insect cells, baculovirus. An outline of the steps: (§1)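 Partially purified baculovirus-expressed human enzyme preincubated with compound, 2 mM phenol (5 min) then 1 μM hematin (5 min). Reaction in Tris-HCl pH 7.9 with 20 μM 1-[14C]arachidonate for 45 s at room temperature, acid-stopped; oxygenated products isolated on Sep-Pak and counted by scintillation.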

Assay [2] deals with COX I. Nature of the assay: PGE2 production in freshly isolated human monocytes. In kind it is cell-based. Particulars: EIA, cells may be expressing COX II constitutively, read-out: COX I IC50, inhibition of PGE2 production. Here is the method:
A summary of activities of Compound (16) against COX I and COX II in cell-free enzyme preparations and whole cells is presented in Table 1. The following abbreviations are used: AA is arachidonic acid, IL-1 is interleukin 1, PMA is phorbol myristate acetate, A23187 is a calcium ionophore (Sigma), BSA is bovine serum albumin and LPS is a lipopolysaccharide (Sigma).
Human monocytes 30 min incubation with Compound (16)
freshly isolated a) 10 min activation, A23187 + PMA
These cells may be expressing COX II
b) 30 min activation, A23187 + PMA
constitutively c) 10 min activation, 20 μM AA
d) 30 min activation, 20 μM AA
EIA determination of PGE2

The target of assay [3] is T2, COX I (Homo sapiens, UniProt P23219). The experiment in a line: radiometric assay, COX I inhibition (human recombinant, baculovirus expressed, partially purified). Particulars: 10 min incubation with compound; 45 sec incubation with 20 μM AA; separation of radioactive products; read-out: COX I IC50. The arrangement: A 2 Kb fragment containing the coding region of COX I; made in house; host or cells: Sf9 insect cells, baculovirus (cDNA from Oxford Biomedical Research). In kind it is biochemical. An outline of the steps:
as §1

For assay [4], the system named is carrageenan-induced paw edema. Nature of the assay: Carrageenan-induced paw edema in the rat. In kind it is in vivo. Particulars: oral. As for the experimental part: Carrageenan-induced paw edema in the rat has been used as the primary in vivo screen for anti-inflammatory activity of most NSAIDs.
Over a series of assays, in which Compound (16), suspended in SSV, was administered orally to rats 1 hour prior to injection of carrageenan, Compound (16) inhibited carrageenan-induced paw edema (ED30 =1.1±1.0 mg/kg).

The subject of assay [5] is phenylquinone-induced writhing. The experiment in a line: Phenylquinone-induced Mouse Writhing Assay. Particulars: 20 or 60 minutes prior to phenylquinone. In kind it is in vivo. Here is the method: Analgetic activity is determined by the Phenylquinone-induced Mouse Writhing Assay, Hendershot, et al., J. Pharmacol. Exp. Ther., 125:237-240 (1959). This assay is one of several acute assays which have been used to assess the analgesic activity of NSAIDs. At the appropriate time after test material administration, phenylquinone is injected intraperitoneally to mice, inducing a series of characteristic "writhing" responses, which are counted between 10 and 20 minutes after phenylquinone injection.
In this assay, Compound (16), suspended in SSV, was tested over the dose range of 1-100 mg/kg administered 20 or 60 minutes prior to phenylquinone challenge.

Assay [6] has as its target T2, COX I. Nature of the assay: TxB2 production in human whole blood activated with ionophore (COX I). Particulars: COX I IC50, inhibition of TxB2 production.

“And” between values parts separate entries of the source, which are not always exact repeats. Identical values can stand only once. “Also recorded” adds a separate entry of the source. Like-named read-outs stand apart in the source and are kept apart here.

T2 sequence (P23219 24-599): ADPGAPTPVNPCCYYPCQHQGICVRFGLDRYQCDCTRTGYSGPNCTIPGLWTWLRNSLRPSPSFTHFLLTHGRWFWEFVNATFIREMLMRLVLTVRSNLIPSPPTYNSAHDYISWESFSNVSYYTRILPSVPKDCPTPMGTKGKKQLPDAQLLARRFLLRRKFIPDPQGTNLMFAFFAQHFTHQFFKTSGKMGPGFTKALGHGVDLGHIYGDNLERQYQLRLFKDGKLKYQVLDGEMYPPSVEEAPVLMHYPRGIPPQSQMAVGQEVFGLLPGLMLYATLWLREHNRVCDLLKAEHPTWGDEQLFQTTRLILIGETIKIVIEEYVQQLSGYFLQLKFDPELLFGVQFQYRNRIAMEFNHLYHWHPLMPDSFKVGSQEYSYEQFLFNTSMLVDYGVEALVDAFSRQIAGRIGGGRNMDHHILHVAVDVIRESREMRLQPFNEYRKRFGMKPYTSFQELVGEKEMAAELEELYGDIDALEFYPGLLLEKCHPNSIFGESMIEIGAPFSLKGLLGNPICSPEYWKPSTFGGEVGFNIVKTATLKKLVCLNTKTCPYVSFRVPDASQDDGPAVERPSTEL

As for `Cc1cc(Cc2ccc(=O)[nH]n2)n(C)c1C(=O)c1ccc(Cl)cc1` [Compound 16, 6-[1,4-dimethyl-5-(4chloro-benzoyl)-1H-pyrrol-2-ylmethyl]-2H-pyridazin-3-one], the ED50 in assay [1] is 0.7 to 2 mg/kg; in assay [5] (Mus musculus, 1-100 mg/kg), approximately 10 mg/kg. Also, the “type of inhibition of COX II” value on COX II is “potent, time-dependent, reversible inhibition”. The IC50 was 0.58 to 0.9 µM and 0.58 µM and 0.9 µM and 0.64 µM at COX II (10 min incubation with compound, 45 sec incubation with 20 μM AA, separation of radioactive products, read-out: COX II IC50); 5.2 µM in the assay on COX I [2] (30 min incubation; a) 10 min activation, A23187 + PMA); 0.31 µM with COX I [2] (30 min incubation; b) 30 min activation, A23187 + PMA); 4.6 µM with COX I [2] (30 min incubation; c) 10 min activation, 20 μM AA); more than 10 µM in the assay on COX I [2] (30 min incubation; d) 30 min activation, 20 μM AA); more than 1000 µM at COX I [3]. For the same compound, the IC50 on COX I [6] (15 min incubation with compound, 30 min with A23187 (ionophore), RIA determination of TxB2) came to 5.6 µM; at COX I [6] (30 min incubation, 15 min activation, A23187, EIA determination of TxB2), 3 µM. On COX II (COX II over COX I), the “selectivity for COX II” value is given as “significantly more selective for COX II than currently available NSAIDs; also recorded: highly selective for COX II”. In assay [4] (Rattus norvegicus, in SSV, 1 hour prior to carrageenan, series of assays, read-out: ED30, inhibition of carrageenan-induced paw edema), the ED30 stood at 1.1 ± 1 mg/kg. Also, the “inhibition of paw edema at the appropriate dose” value in assay [4] (maximum amount achievable with NSAIDs) is ~ 60%. The “inhibition of phenylquinone-induced writhing” value in assay [5] (100 mg/kg, in SSV) was found to be 100%.
